In PMC9895061 (Signal Transduction and Targeted Therapy, 2023):

Columns and labels:
PRDX1 = biological target: T1, PRDX1 (Homo sapiens, UniProt Q06830); test: Trx-TrxR-NADPH coupling peroxiredoxin activity assay, PRDX1; type: biochemical; conditions: recombinant PRDX1, 1.5 h incubation, mean ± SEM, triplicate; read-out: IC50 against the peroxidase activity of PRDX1
T1 sequence (Q06830 1-199): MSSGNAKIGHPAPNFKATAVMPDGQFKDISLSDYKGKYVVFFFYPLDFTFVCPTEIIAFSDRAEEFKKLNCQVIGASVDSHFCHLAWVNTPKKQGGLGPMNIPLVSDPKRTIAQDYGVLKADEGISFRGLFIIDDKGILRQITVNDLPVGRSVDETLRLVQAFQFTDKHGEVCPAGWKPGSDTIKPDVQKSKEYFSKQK

recombinant PRDX1 = test: Click labeling assay; type: binding, human; conditions: recombinant PRDX1, streptavidin HRP blot; competed by Celastrol
Description: The click labeling method used in this paper refers to these researches.[49],[50] Alkynylated compounds were incubated with recombinant proteins for 1 h in buffer C (20 mM Hepes, […]). For some PRDX1 wild type samples, unalkynylated compounds were pre-incubated with proteins for 0.5 h before incubating with alkynylated compounds. The work concentration of proteins is 1 µM. After compounds incubation, the protein samples were subjected to click reaction procedures through terminal alkynyl group as previously described.[49],[50] Protein samples were resolved with SDS-PAGE and blotted with streptavidin HRP (1:10000, Thermo Scientific) and anti-PRDX1 antibody (8499, 1:1000, Cell Signaling Technology).

Row | melting point | IC50 (PRDX1) | SMILES | covalent binding to PRDX1 by click labeling (in words) (recombinant PRDX1)
1 | 151.9 to 155.7 °C | 280 ± 40 nM | COC(=O)[C@H](Cc1ccccc1)NC(=O)N[C@]1(C)CC[C@]2(C)CC[C@]3(C)C4=CC=C5C(=CC(=O)C(O)=C5C)[C@]4(C)CC[C@@]3(C)[C@@H]2C1 [19-266, Methyl (((2R,4aS,6aS,12bR,14aS,14bR)-10-hydroxy-2,4a,6a,9,12b,14a-hexamethyl-11-oxo-1,2,3,4,4a,5,6,6a,11,12b,13,14,14a,14b-tetradecahydropicen-2-yl)carbamoyl)-L-phenylalaninate] | 
2 | 123.4 to 127.8 °C |  | C#CCCOC(=O)[C@@H](C)NC(=O)N[C@]1(C)CC[C@]2(C)CC[C@]3(C)C4=CC=C5C(=CC(=O)C(O)=C5C)[C@]4(C)CC[C@@]3(C)[C@@H]2C1 | 

Row | SMILES | melting point | IC50 (PRDX1) | covalent binding to PRDX1 by click labeling (in words) (recombinant PRDX1)
3 | C#CCOCCOCCNC(=O)[C@]1(C)CC[C@]2(C)CC[C@]3(C)C4=CC=C5C(=CC(=O)C(O)=C5C)[C@]4(C)CC[C@@]3(C)[C@@H]2C1 [alkynylated Celastrol, (2R,4aS,6aS,12bR,14aS,14bR)-10-hydroxy-2,4a,6a,9,12b,14a-hexamethyl-11-oxo-N-(2-(2-(prop-2-yn-1-yloxy)ethoxy)ethyl)-1,2,3,4,4a,5,6,6a,11,12b,13,14,14a,14b-tetradecahydropicene-2-carboxamide] | 64.7 to 68 °C |  | covalently bound to PRDX1
